# Like-named read-outs stand apart in the source and are kept apart here.
# What was measured:
# [1] = biological target: T1, DCAF15-RBM39 ternary complex (Homo sapiens, UniProt Q14498+Q66K64); test: Compound-induced DCAF15-RBM39 ternary complex formation, AlphaLISA; assay type: biochemical
# T1 construct: (RRM2)
# Protocol: Compound-induced DCAF15-RBM39 ternary complex formation was monitored using AlphaLISA® assays (Perkin Elmer, Waltham, MA). […] 9.8 ul of this protein mixture was then mixed with the compounds in the assay plate and incubated for one hour at room temperature. Reaction mixtures with no compounds added were included as negative controls, while a His-tagged and biotinylated GST protein was included to track general assay performance. […] The beads were then added to the assay plate sequentially with incubation at room temperature for 1-2 hours after each addition.
# DCAF15 = DCAF15 (Homo sapiens, UniProt Q66K64); test: Binary interaction between compounds and DCAF15, HTRF competition assay; assay type: binding
# Chain of DCAF15 (Q66K64 whole entry): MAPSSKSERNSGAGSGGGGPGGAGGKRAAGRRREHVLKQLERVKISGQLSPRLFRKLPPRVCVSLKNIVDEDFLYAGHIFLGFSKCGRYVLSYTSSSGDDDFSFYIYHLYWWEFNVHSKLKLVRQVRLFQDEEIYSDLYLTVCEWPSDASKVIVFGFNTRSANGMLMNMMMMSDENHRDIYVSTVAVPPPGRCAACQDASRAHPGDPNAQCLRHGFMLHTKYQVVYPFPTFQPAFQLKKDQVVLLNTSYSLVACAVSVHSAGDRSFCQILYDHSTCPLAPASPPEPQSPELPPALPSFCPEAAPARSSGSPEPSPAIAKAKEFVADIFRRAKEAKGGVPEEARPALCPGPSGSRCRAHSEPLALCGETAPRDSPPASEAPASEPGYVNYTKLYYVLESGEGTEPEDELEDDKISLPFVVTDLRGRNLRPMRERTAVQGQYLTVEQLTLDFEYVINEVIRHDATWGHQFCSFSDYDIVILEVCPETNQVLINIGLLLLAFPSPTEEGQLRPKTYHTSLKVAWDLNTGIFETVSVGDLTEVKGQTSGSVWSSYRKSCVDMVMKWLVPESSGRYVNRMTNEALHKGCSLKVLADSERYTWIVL
# Chain of DCAF15 (Q16531 whole entry partner): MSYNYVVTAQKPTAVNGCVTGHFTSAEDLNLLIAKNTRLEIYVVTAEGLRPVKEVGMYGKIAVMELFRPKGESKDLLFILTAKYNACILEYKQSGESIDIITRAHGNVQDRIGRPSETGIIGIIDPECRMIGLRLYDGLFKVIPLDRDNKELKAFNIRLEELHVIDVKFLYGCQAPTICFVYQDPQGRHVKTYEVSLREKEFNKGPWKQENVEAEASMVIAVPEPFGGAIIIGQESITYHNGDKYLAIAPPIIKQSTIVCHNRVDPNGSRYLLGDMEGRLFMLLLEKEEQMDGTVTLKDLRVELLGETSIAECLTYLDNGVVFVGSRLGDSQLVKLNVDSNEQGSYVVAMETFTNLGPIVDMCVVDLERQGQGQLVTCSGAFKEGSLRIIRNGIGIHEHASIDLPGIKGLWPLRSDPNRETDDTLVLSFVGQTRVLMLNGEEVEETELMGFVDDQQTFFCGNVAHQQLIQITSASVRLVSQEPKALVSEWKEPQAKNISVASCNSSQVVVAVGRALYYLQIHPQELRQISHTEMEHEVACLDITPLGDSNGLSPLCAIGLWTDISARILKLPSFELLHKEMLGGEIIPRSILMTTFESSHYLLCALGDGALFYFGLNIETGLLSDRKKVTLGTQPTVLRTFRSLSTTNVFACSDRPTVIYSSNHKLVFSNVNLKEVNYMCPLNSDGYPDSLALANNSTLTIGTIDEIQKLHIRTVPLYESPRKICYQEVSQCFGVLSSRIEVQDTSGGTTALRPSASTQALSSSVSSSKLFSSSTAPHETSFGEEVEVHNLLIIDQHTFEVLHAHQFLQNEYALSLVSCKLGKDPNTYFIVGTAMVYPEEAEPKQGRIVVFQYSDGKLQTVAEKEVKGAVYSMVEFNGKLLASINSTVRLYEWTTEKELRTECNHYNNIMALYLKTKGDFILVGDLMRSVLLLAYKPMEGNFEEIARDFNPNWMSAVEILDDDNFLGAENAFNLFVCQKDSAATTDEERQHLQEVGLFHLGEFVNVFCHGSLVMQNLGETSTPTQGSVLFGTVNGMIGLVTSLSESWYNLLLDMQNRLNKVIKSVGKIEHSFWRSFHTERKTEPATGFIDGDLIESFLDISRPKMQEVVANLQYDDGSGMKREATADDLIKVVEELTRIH
# Protocol: DCAF15 interactions with test compounds were monitored using HTRF competition assays (Cisbio, Bedford, MA). […] These two solutions were mixed and incubated for 15 min at room temperature. 9.8 ul of the tracer solution and 10 ul of the DCAF15/mAb Anti-6His-Eu cryptate Gold mixture were added sequentially to each well in the assay plate. Reaction mixtures with no DCAF15 added were included as […] controls. […] Binding was estimated based on ratiometric analysis and titration curves were generated in GraphPad Prism (7.00, GraphPad, La Jolla, CA).
# [2] = AlphaLISA, His-tagged DCAF15 complex and biotin-carrying RBM39, read-out: Ternary-RBM39 (RRM2) EC50
# [3] = HTRF competition with Alexa Fluor 647 tracer, His-tagged DCAF15 complex, read-out: DCAF15 IC50
# T1 sequence (Q66K64 whole entry): as the sequence (Q66K64 whole entry) above
# T1 sequence (Q14498 250-328 limits assumed): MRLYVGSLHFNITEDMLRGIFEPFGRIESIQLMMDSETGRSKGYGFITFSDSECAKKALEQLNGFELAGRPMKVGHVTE
# T1 sequence (Q16531 whole entry partner): as the sequence (Q16531 whole entry partner) above
Compound,"EC50 [1, 2] [µM]",IC50 (DCAF15; [3]) [µM],EC50 [1] [µM],IC50 (DCAF15) [µM]
"O=S(=O)(Nc1ccc(Cl)c2c(Cl)c[nH]c12)c1ccc(S(=O)(=O)N2CCc3[nH]c(-c4ccccc4)nc3C2)cc1 [Compound 54, N-(3,4-dichloro-1H-indol-7-yl)-4-((2-phenyl-1,4,6,7-tetrahydro-5H-imidazo[4,5-c]pyridin-5-yl)sulfonyl) benzene sulfonamide]",< 5,< 100,–,–
"CC(C)(C)OC(=O)N1CCC2(CC1)CN(S(=O)(=O)c1ccc(S(=O)(=O)Nc3ccc(Cl)c4c(Cl)c[nH]c34)cc1)CCO2 [Compound 55, tert-butyl 4-((4-(N-(3,4-dichloro-1H-indol-7-yl)sulfamoyl)phenyl)sulfonyl)-1-oxa-4,9-diazaspiro[5.5] undecane-9-carboxylate]",< 5,< 20,–,–
"O=S(=O)(Nc1ccc(Cl)c2c(Cl)c[nH]c12)c1ccc(S(=O)(=O)C2CCNCC2)cc1 [Compound 57, N-(3,4-dichloro-1H-indol-7-yl)-4-(piperidin-4-ylsulfonyl)benzene sulfonamide]",< 1,< 5,–,–
"CN1CCC(S(=O)(=O)c2ccc(S(=O)(=O)Nc3ccc(Cl)c4c(Cl)c[nH]c34)cc2)CC1 [Compound 58, N-(3,4-dichloro-1H-indol-7-yl)-4-((1-methylpiperidin-4-yl)sulfonyl)benzene sulfonamide]",< 1,< 5,–,–
"O=S(=O)(Nc1ccc(Cl)c2c(Cl)c[nH]c12)c1ccc(C2(N3CCNCC3)CC2)cc1 [Compound 59, N-(3,4-dichloro-1H-indol-7-yl)-4-(1-(piperazin-1-yl)cyclopropyl) benzenesulfonamide]",< 1,< 5,–,–
"O=S(=O)(Nc1ccc(Cl)c2c(Cl)c[nH]c12)c1ccc(C2(N3CCNCC3)COC2)cc1 [Compound 60, N-(3,4-dichloro-1H-indol-7-yl)-4-(3-(piperazin-1-yl)oxetan-3-yl)benzenesulfonamide]",< 1,< 5,–,–
"Cn1cc(-c2ccc(S(=O)(=O)Nc3ccc(Cl)c4c(Cl)c[nH]c34)cc2)cn1 [Compound 61, N-(3,4-dichloro-1H-indol-7-yl)-4-(1-methyl-1H-pyrazol-4-yl)benzenesulfonamide]",< 5,< 5,–,–
"CCCN(c1ccc(S(=O)(=O)Nc2ccc(Cl)c3c(Cl)c[nH]c23)cc1)S(=O)(=O)C1CCNCC1 [Compound 63, N-(4-(N-(3,4-dichloro-1H-indol-7-yl)sulfamoyl)phenyl)-N-propylpiperidine-4-sulfonamide]",< 1,< 5,–,–
"CN1CCC(S(=O)(=O)Nc2ccc(S(=O)(=O)Nc3ccc(Cl)c4c(Cl)c[nH]c34)cc2)CC1 [Compound 64, N-(4-(N-(3,4-dichloro-1H-indol-7-yl)sulfamoyl)phenyl)-1-methylpiperidine-4-sulfonamide]",< 5,< 100,–,–
"CCCN(c1ccc(S(=O)(=O)Nc2ccc(Cl)c3c(Cl)c[nH]c23)cc1)S(=O)(=O)N1CCN(C)CC1 [Compound 66, N-(4-(N-(3,4-dichloro-1H-indol-7-yl)sulfamoyl)phenyl)-4-methyl-N-propylpiperazine-1-sulfonamide]",< 1,< 5,–,–
"CCCN(c1ccc(S(=O)(=O)Nc2ccc(Cl)c3c(Cl)c[nH]c23)cc1)S(=O)(=O)N1CCNCC1 [Compound 67, N-(4-(N-(3,4-dichloro-1H-indol-7-yl)sulfamoyl)phenyl)-N-propylpiperazine-1-sulfonamide]",< 1,< 5,–,–
"CCN=S(=O)(c1ccc(S(=O)(=O)Nc2ccc(Cl)c3c(Cl)c[nH]c23)cc1)C1CCNCC1 (stereo not drawn) [Compound 68, N-(3,4-dichloro-1H-indol-7-yl)-4-(N-ethylpiperidine-4-sulfonimidoyl)benzenesulfonamide]",< 1,< 5,–,–
"CCN=S(=O)(c1ccc(S(=O)(=O)Nc2ccc(Cl)c3c(Cl)c[nH]c23)cc1)N1CCNCC1 (stereo not drawn) [Compound 69, N-(3,4-dichloro-1H-indol-7-yl)-4-(N-ethylpiperazine-1-sulfonimidoyl)benzenesulfonamide]",< 1,< 100,–,–
"O=S(=O)(Nc1ccc(Cl)c2c(Cl)c[nH]c12)c1ccc(C(F)(F)C2CCNCC2)cc1 [Compound 70, N-(3,4-dichloro-1H-indol-7-yl)-4-(difluoro(piperidin-4-yl)methyl)benzene sulfonamide]",< 1,< 5,–,–
"CCCN(C(C)=O)c1ccc(S(=O)(=O)Nc2ccc(Cl)c3c(Cl)c[nH]c23)cc1 [Compound 71, N-(4-(N-(3,4-dichloro-1H-indol-7-yl)sulfamoyl)phenyl)-N-propylacetamide]",< 1,< 5,–,–
"O=S(=O)(F)c1ccc(S(=O)(=O)Nc2ccc(Cl)c3c(Cl)c[nH]c23)cc1 [Compound 72, 4-(N-(3,4-dichloro-1H-indol-7-yl)sulfamoyl)benzenesulfonyl fluoride]",–,–,< 1,< 20
"O=S(=O)(Nc1ccc(Cl)c2c(Cl)c[nH]c12)c1cccc(Br)c1 [Compound 76, 3-bromo-N-(3,4-dichloro-1H-indol-7-yl)benzenesulfonamide]",< 5,< 20,–,–
"Cc1ccc(NS(=O)(=O)c2ccc(S(=O)(=O)N(C)C3CCNCC3)cc2)c2[nH]cc(C#N)c12 [Compound 78, N^1-(3-cyano-4-methyl-1H-indol-7-yl)-N^4-methyl-N^4-(piperidin-4-yl) benzene-1,4-disulfonamide]",< 1,< 5,–,–
"Cc1ccc(NS(=O)(=O)c2ccc(S(=O)(=O)N3CCC(N(C)C)C3)cc2)c2[nH]cc(C#N)c12 (stereo not drawn) [Compound 80, N-(3-cyano-4-methyl-1H-indol-7-yl)-4-((3-(dimethylamino)pyrrolidine-1-yl)sulfonyl)benzenesulfonamide]",< 1,< 20,–,–
"Cc1ccc(NS(=O)(=O)c2ccc(S(=O)(=O)N3CCC(N)CC3)cc2)c2[nH]cc(C#N)c12 [Compound 81, 4-((4-aminopiperidin-1-yl)sulfonyl)-N-(3-cyano-4-methyl-1H-indol-7-yl) benzenesulfonamide]",< 1,< 5,–,–
"Cc1ccc(NS(=O)(=O)c2ccc(S(=O)(=O)N3CCN(C4COC4)CC3)cc2)c2[nH]cc(C#N)c12 [Compound 86, N-(3-cyano-4-methyl-1H-indol-7-yl)-4-((4-(oxetan-3-yl)piperazin-1-yl)sulfonyl)benzenesulfonamide]",< 1,< 20,–,–
"O=S(=O)(Nc1ccc(Cl)c2cc[nH]c12)c1ccc(S(=O)(=O)N2CCNCC2)cc1 [Compound 87, N-(4-chloro-1H-indol-7-yl)-4-(piperazin-1-ylsulfonyl)benzenesulfonamide]",< 5,< 20,–,–
"N#Cc1ccc(NS(=O)(=O)c2ccc(S(=O)(=O)N3CCNCC3)cc2)c2[nH]cc(Cl)c12 [Compound 88, N-(3-chloro-4-cyano-1H-indol-7-yl)-4-(piperazin-1-ylsulfonyl)benzenesulfonamide]",< 1,< 20,–,–
"Cc1ccc(NS(=O)(=O)c2ccc(S(=O)(=O)N3CCN4CCCC4C3)cc2)c2[nH]cc(C#N)c12 (stereo not drawn) [Compound 91, N-(3-cyano-4-methyl-1H-indol-7-yl)-4-((hexahydropyrrolo[1,2-a]pyrazin-2(1H)-yl)sulfonyl)benzenesulfonamide]",< 1,< 100,–,–
"Cc1ccc(NS(=O)(=O)c2ccc(S(=O)(=O)N3CC4CNCC4C3)cc2)c2[nH]cc(C#N)c12 (stereo not drawn) [Compound 92, N-(3-cyano-4-methyl-1H-indol-7-yl)-4-((hexahydropyrrolo[3,4-c]pyrrol-2(1H)-yl)sulfonyl)benzenesulfonamide]",< 1,< 20,–,–
"Cc1ccc(NS(=O)(=O)c2ccc(S(=O)(=O)N3C[C@H]4C[C@@H](C3)N4)cc2)c2[nH]cc(C#N)c12 [Compound 94, 4-(((1R,5S)-3,6-diazabicyclo[3.1.1]heptan-3-yl)sulfonyl)-N-(3-cyano-4-methyl-1H-indol-7-yl)benzenesulfonamide]",< 1,< 20,–,–
"N#Cc1cccc(S(=O)(=O)Nc2ccc(I)c3c(Cl)c[nH]c23)c1 [Compound 102, N-(3-chloro-4-iodo-1H-indol-7-yl)-3-cyanobenzenesulfonamide]",< 5,< 100,–,–
O=C1CCC(NS(=O)(=O)c2ccc(S(=O)(=O)Nc3ccc(Cl)c4c(Cl)c[nH]c34)c(F)c2)CN1 (stereo not drawn) [compound 105],< 20,< 20,–,–
CC1CN(S(=O)(=O)c2ccc(S(=O)(=O)Nc3ccc(Cl)c4c(Cl)c[nH]c34)cc2)CCN1 (stereo not drawn) [compound 109],< 1,< 5,–,–
CCCN(C(=O)CN)c1ccc(S(=O)(=O)Nc2ccc(Cl)c3c(Cl)c[nH]c23)cc1 [compound 131],< 1,< 5,–,–

# — patent publication US20240190821A1, “SULFONAMIDE SUBSTITUTED N-(1H-INDOL-7-YL)BENZENESULFONAMIDES AND USES THEREOF” (Triana Biomedicines, Inc., priority 2021, published 2024)
